Source: patent US20250177566A1, “USE OF CHEMICAL EPIGENETIC MODIFIERS TO MODULATE GENE EXPRESSION” (The University of North Carolina at Chapel Hill, priority 2022, published 2025)

Key:
[1] = system: firefly luciferase expression cassette; assay: Transfection evaluating multiple promoters, SLF* CEM system, dual luciferase assay, 293T Renilla; type: cell-based, human; settings: FIGS. 15A and 15B; ybTATA, miniCMV, Het, Ef1a core, hPGK; 0, 5, 15 or 50 nM CEM207
Experimental: Next, it was determined whether SLF*CEMs can regulate AAV. The cassette shown in FIG. 14A was inserted into rAAV2 and infected into HEK293T Renilla. […] Next, it was explored whether the cassette was truly modular by varying the promoter while retaining SLF* CEM successful activation of rAAV2.
Transfection Evaluating Multiple Promoters—SLF* CEM System with 0, 5, 15 or 50 nM CEM207:
Day 1 (0 h): 293T cells with stably infected Renilla under the control of full length Ef1a promoter were plated in a 96 well plate; 10 k cells/well, 100 μL media/well. All conditions were plated in biological triplicate.
Day 2 (24 h): A PEI transfection mixture of each construct (Jet, ybTATA, miniCMV, Ef1a core, and hPGK) was prepared and added to each well: 0.1 μg of DNA, 0.3 μL of PEI, and 4 μL of Opti-MEM per well, with PEI added last. Reagents were mixed well and incubated for 15 minutes. 4 μL of the appropriate transfection mixture was added to each well. […]
Day 5 (96 h): […] Data was obtained using the Promega Dula Luciferase Reporter (DLR) assay: first, the cells were washed with 100 μL of PBS/well dropwise followed by 20 μL of 1× passive lysis buffer (PLB) added to each well. The cells were incubated for 15 minutes in PLB and the assay ran on pheraSTAR microplate reader with 25 μL of each DLR reagent, gain=2000.

BRD4 = target: T1, BRD4 (Homo sapiens, UniProt O60885+P62942); assay: BRD4 ChIP-qPCR near the CXCR4 transcription start site, HCT116; type: cell-based; settings: FIG. 8, 25 nM, 24 hrs
T1 construct: achieved via the accumulation of endogenous epigenetic machinery at the designed gRNA targeted gene locus; endogenous in cells; host or cells: HCT116 cells stably expressing dCas9 and MS2-FKBP*x2, transfected with CXCR4 or NT gRNA
Experimental: FIGS. 8A-8B show alamarBlue cell viability assays. HEK293T or HCT116 cells were plated in 96-well plates 24 hrs before chemical treatment of 0.001, 0.01, 0.1, 1, 10, 50, and 100 μM CEM207 was added. Another group of cells were treated with all concentrations of CEM207 mentioned above along with 200 nM CEM87 in all samples. After 4 days of chemical exposure, cell growth was measured by fluorescence. […] HCT116 cells were stably infected with dCas9 and MS2-FKBP*x2 constructs and transfected with CXCR4 gRNA. After 24 hrs of 25 nM CEM207 treatment, ChIP-qPCR was performed at different base pair distances from the transcription start site of CXCR4 gene. […] Error bars represent the standard deviation.
Given that SLF*-CEMa facilitates gene activation via recruitment of BET proteins including BRD4, BRD4 enrichment at a specific targeted gene locus was investigated to further validate the mechanism of CEM207. Based on the alamarBlue cell viability assay performed with HEK293T and HCT116 cells, CEM207 can have different toxicity effects on different cell lines after 4 days of exposure. […] The signal change was measured between samples when only CEM207 or gRNA are present and those where both are present. […] To determine outlier significance, a “z-score” distribution was calculated by taking the scaled means of the x- and y-axis values and calculated P values for each point within this distribution. […]

T1 sequence (P62942 2-108 limits assumed, other chains not shown): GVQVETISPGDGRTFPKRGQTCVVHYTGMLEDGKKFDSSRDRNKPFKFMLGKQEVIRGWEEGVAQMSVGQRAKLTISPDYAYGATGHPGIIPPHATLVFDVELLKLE

CC[C@H](C(=O)N1CCCC[C@H]1C(=O)O[C@H](CCc1ccc(OC)c(OC)c1)c1cccc(OCC(=O)NCCOCCOCCNC(=O)C[C@@H]2N=C(c3ccc(Cl)cc3)c3c(sc(C)c3C)-n3c(C)nnc32)c1)c1cc(OC)c(OC)c(OC)c1 [CEM207, (R)-1-(3-((14-((S)-4-(4-Chlorophenyl)-2,3,9-trimethyl-6H-thieno[3,2-f][1,2,4]triazolo[4,3-a][1,4]diazepin-6-yl)-2,13-dioxo-6,9-dioxa-3,12-diazatetradecyl)oxy)phenyl)-3-(3,4-dimethoxyphenyl) propyl(S)-1-((S)-2-(3,4,5-trimethoxyphenyl)butanoyl) piperidine-2-carboxylate]
activation with varied minimal promoters [1]: tolerates a variety of minimal promoters
fold change, BRD4 ChIP-qPCR (CXCR4 gRNA vs NT gRNA) (BRD4; +40 bp from CXCR4 TSS): 2.7 fold
fold change, BRD4 ChIP-qPCR (CXCR4 gRNA vs NT gRNA) (BRD4; +300 bp from CXCR4 TSS): 1.2 fold
